Assay results taken from US20070117743A1, “New antitumoral compounds” (priority 2003, published 2007).

Assays:
Format in all cases: cell-based, human
Details in all cases: 48 hours exposure, SRB
LoVo-Dox = experiment: SRB colorimetric assay of cell growth and viability, LoVo-Dox
How it was run: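 Here, cells grow drug-free for 18 h, then receive sample dilutions from 10 down to 10^−8 μg/mL for 48 h at 37° C. Protein-bound SRB is solubilized in Tris and quantified at 490 nm.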

DU-145 = experiment: SRB colorimetric assay of cell growth and viability, DU-145
K-562 = experiment: SRB colorimetric assay of cell growth and viability, K-562
A-549 = experiment: SRB colorimetric assay of cell growth and viability, A-549
IGROV-1 = experiment: SRB colorimetric assay of cell growth and viability, IGROV-1
SK-BR-3 = experiment: SRB colorimetric assay of cell growth and viability, SK-BR-3
HeLa-APL = experiment: SRB colorimetric assay of cell growth and viability, HeLa-APL
LoVo = experiment: SRB colorimetric assay of cell growth and viability, LoVo
LNCaP = experiment: SRB colorimetric assay of cell growth and viability, LNCaP
PANC-1 = experiment: SRB colorimetric assay of cell growth and viability, PANC-1
HT-29 = experiment: SRB colorimetric assay of cell growth and viability, HT-29
HeLa = experiment: SRB colorimetric assay of cell growth and viability, HeLa
SK-MEL-28 = experiment: SRB colorimetric assay of cell growth and viability, SK-MEL-28
IGROV-ET = experiment: SRB colorimetric assay of cell growth and viability, IGROV-ET

## C/C=C1\NC(=O)[C@@H](Cc2ccccc2)NC(=O)[C@H](C(C)C)NC(=O)[C@H]([C@H](C)CC)NC(=O)[C@@H](NC(=O)[C@@H](NC(=O)[C@@H](CCCN)NC(=O)[C@@H]2CCCN2C(=O)[C@@H](NC(=O)[C@H](NC(=O)[C@H](NC(=O)[C@@H](NC(=O)CCCC(C)C)C(C)C)[C@H](C)O)C(C)C)C(C)C)[C@H](C)CC)[C@H](C)OC(=O)[C@@H](C(C)C)NC1=O [Compound 69, [D-Val^1, D-Phe^3, Val^4, alo-Ile^5, alo-Thr^6, alo-Ile^7, D-Orn^8, Pro^9, Val^10, D-Val^11, D-Thr^12, Val^13] KF]
LoVo-Dox
  GI50: ≥ 6.77 µM
  TGI LOVO-DOX: 6.77E−06 Molar
LoVo-Dox; read-out: LC50 LOVO-DOX
  CC50: ≥ 6.77 µM
DU-145
  GI50: ≥ 6.77 µM
  LC50 (concentration causing 50% net cell kill): ≥ 6.77 µM
  TGI DU-145: 6.77E−06 Molar
K-562
  GI50: ≥ 6.77 µM
  TGI K-562: 6.77E−06 Molar
K-562; read-out: LC50 K-562
  CC50: ≥ 6.77 µM
A-549
  TGI A-549: 6.77E−06 Molar
A-549; read-out: GI50 A-549
  GI50: ≥ 6.77 µM
A-549; read-out: LC50 A-549
  CC50: ≥ 6.77 µM
IGROV-1
  GI50: 4.37 µM
  LC50 (concentration causing 50% net cell killing): ≥ 6.77 µM
  TGI IGROV: 6.77E−06 Molar
SK-BR-3
  GI50: 6.72 µM
  LC50: ≥ 6.77 µM
  TGI SK-BR-3: 6.77E−06 Molar
HeLa-APL
  GI50: ≥ 6.77 µM
  TGI HELA-APL: 6.77E−06 Molar
HeLa-APL; read-out: LC50 HELA-APL
  CC50: ≥ 6.77 µM
LoVo
  GI50: ≥ 6.77 µM
  TGI LOVO: 6.77E−06 Molar
LoVo; read-out: LC50 LOVO
  CC50: ≥ 6.77 µM
LNCaP
  TGI LN-caP: 6.77E−06 Molar
LNCaP; read-out: GI50 LN-caP
  GI50: 2.35 µM
LNCaP; read-out: LC50 LN-caP
  CC50: ≥ 6.77 µM
PANC-1
  GI50: ≥ 6.77 µM
  TGI PANC-1: 6.77E−06 Molar
PANC-1; read-out: LC50 PANC-1
  CC50: ≥ 6.77 µM
HT-29
  TGI HT-29: 6.77E−06 Molar
HT-29; read-out: GI50 HT-29
  GI50: ≥ 6.77 µM
HT-29; read-out: LC50 HT-29
  CC50: ≥ 6.77 µM
HeLa
  GI50: ≥ 6.77 µM
  TGI HELA: 6.77E−06 Molar
HeLa; read-out: LC50 HELA
  CC50: ≥ 6.77 µM
SK-MEL-28
  GI50: ≥ 6.77 µM
  TGI MEL-28: 6.77E−06 Molar
SK-MEL-28; read-out: LC50 MEL-28
  CC50: ≥ 6.77 µM
IGROV-ET
  GI50: ≥ 6.77 µM
  TGI IGROV-ET: 6.77E−06 Molar
IGROV-ET; read-out: LC50 IGROV-ET
  CC50: ≥ 6.77 µM
